The values below come from the OPERA property sets (Mansouri et al. 2018).

The melting point is the temperature of the solid-liquid transition. A word on the boiling point: it is the temperature of boiling at a given pressure.

Settings in the first data set: not given
For the compound `O=CC[C@@H](O)C(O)[C@H](O)CO` (stereo in doubt), the melting point amounted to 146 °C.

The compound `CCCCOC(=O)c1ccc(N)cc1` displayed a melting point of 58 °C.

Turning to `CS(=O)(=O)c1ccc(C(=O)O)cc1`, the melting point is 270 °C.

Take `C/C=C(\C)C(=O)OC`: the boiling point came out at 139 °C.

In turn, `CCCCCCCSCCCCCCC` registered a boiling point of 298 °C.

For the compound `CC(C)OC(=O)C1(S(=O)(=O)c2ccc([N+](=O)[O-])cc2)CCCCCC1`, the melting point came out at 83.5 °C.

As to `Nc1ccc(N)c2c1C(=O)c1c(N)ccc(N)c1C2=O`, the melting point was found to be 285 °C.

`CC(=O)Nc1cc(NS(=O)(=O)C(F)(F)F)c(C)cc1C` displayed a log10 Koc (L/kg) of 2.3 and a melting point of 184 °C.

Compound `CCOc1ccc(N=Nc2ccc(OCC)cc2)cc1` yielded a melting point of 162 °C.

On to `C[C@H]1C=CC2C(C1)C2(C)C` (stereo in doubt), for which the boiling point was found to be 169 °C.

In the case of `Cc1ccc(C)c2occc12`, the boiling point was 216 °C.

Regarding `C1CCC(C2CCCCC2)CC1`, the boiling point worked out at 238 °C, the log10 vapour pressure (mmHg) was -0.967 and the melting point is 4 °C.

For the compound `NCCCC[C@H](N)C(=O)O`, the log10 vapour pressure (mmHg) was -8.28.

`ICc1ccccc1`: the log10 vapour pressure (mmHg) is -0.903 and the melting point stood at 24.5 °C.

`CCCOC(=O)CC(C)C` yielded a boiling point of 156 °C and a log10 vapour pressure (mmHg) of 0.413.

As for `CCC[N+](=O)[O-]`, the boiling point stood at 131 °C, the log10 Henry constant (atm·m³/mol) is -4.06, the log10 Koa worked out at 3.25 and the log10 vapour pressure (mmHg) was determined as 1. The melting point was -108 °C.

With `CCNC(=O)NCC`, the boiling point is 263 °C and the melting point is 112 °C.

Consider `C#CC1(OC(N)=O)CCCCC1`, for which the melting point was 96 °C and the ready biodegradability entry is “readily biodegradable”.

Take `C=CCCC=O`: the boiling point stood at 99 °C.

With `CCCCC(C)C(C)=O` (stereo not drawn), the boiling point turned out to be 164 °C.

In the case of `O=C(Cl)CCc1ccccc1`, the melting point was -2 °C.

In the case of `c1ccc2c(c1)Sc1ccccc1S2`, the boiling point turned out to be 365 °C, the melting point turned out to be 159 °C and the ready biodegradability entry is recorded as “not readily biodegradable”.

Compound `Cc1cccc(CCl)c1` yielded a boiling point of 196 °C.

On to `C=CCc1cccc(C)c1O`, for which the boiling point came out at 232 °C.

`CC(N)=O`: the boiling point amounted to 222 °C, the log10 Koc (L/kg) came to 0.7, the log10 vapour pressure (mmHg) was -1.4 and the melting point was 81 °C. For the same compound, the ready biodegradability entry is given as “readily biodegradable”.

For the compound `CCCCCCCOC(=O)CCCCC`, the boiling point came out at 261 °C and the melting point is -34.4 °C.

In turn, `CCCOC(=O)c1ccc(O)cc1` displayed a melting point of 97 °C.

`Cc1cc(O)c2c(c1)C(=O)c1cccc(O)c1C2=O` displayed a melting point of 196 °C.

Compound `CCC(COC(=O)c1cc(OC)c(OC)c(OC)c1)(c1ccccc1)N(C)C` (stereo not drawn) showed a melting point of 79 °C.

With `O=S(=O)(c1ccc(Cl)cc1)c1ccc(Cl)cc1`, the melting point was found to be 148 °C and the ready biodegradability entry is “not readily biodegradable”.

As to `COc1ccccc1OP(=O)(Oc1ccccc1OC)Oc1ccccc1OC`, the melting point is 91 °C.

Consider `CCn1c(C)nc2ccccc21`, for which the boiling point was 296 °C and the melting point turned out to be 51 °C.

In turn, `COc1ccc2[nH]c3c(c2c1)CCNC3C` (stereo not drawn) gave a melting point of 150 °C.

Turning to `C[N+]12CCC(CC1)C(OC(=O)C(O)(c1ccccc1)c1ccccc1)C2.[Br-]` (stereo not drawn), the melting point turned out to be 240 °C.

`CCC(C)NC(C)CC` (stereo not drawn): the boiling point turned out to be 135 °C and the ready biodegradability result is “not readily biodegradable”.

Compound `C#CCCCCCCCCCCCCCCCC` returned a boiling point of 313 °C and a melting point of 22.5 °C.

In turn, `CCC(Br)Br` registered a boiling point of 134 °C.

In turn, `Cc1cn([C@H]2C[C@H](O)[C@@H](CO)O2)c(=O)[nH]c1=O` displayed a melting point of 186 °C.

As for `Cc1ccccc1C`, the boiling point was determined as 144 °C, the log10 Henry constant (atm·m³/mol) is -2.29, the log10 Koa was determined as 3.91 and the log10 Koc (L/kg) came out at 2.25. In addition, the log10 biodegradation half-life (days) came out at 0.778, the log10 vapour pressure (mmHg) is 0.82, the melting point was -25.2 °C and the ready biodegradability entry is listed as “readily biodegradable”.

For `CSc1nnc(C(C)(C)C)c(=O)n1/N=C/C(C)C`, the log10 vapour pressure (mmHg) is -6.46 and the melting point is 159 °C.

Turning to `O=C1c2ccccc2C(=O)c2c(O)c(O)cc(O)c21`, the melting point amounted to 259 °C.

Take `CC(=O)c1ccc2ccccc2c1O`: the melting point is 101 °C.

`C1CC2CC12` (stereo not drawn): the boiling point was found to be 45.5 °C and the log10 vapour pressure (mmHg) is 2.56.

With `CSc1nc(NC(C)C)nc(NC(C)C)n1`, the log10 Koc (L/kg) came to 2.85, the log10 vapour pressure (mmHg) is -5.91 and the melting point was 119 °C.

On to `Clc1ccc(-c2ccccc2)cc1`, for which the boiling point is 293 °C, the log10 Henry constant (atm·m³/mol) was -3.24, the log10 Koa came out at 6.8 and the log10 vapour pressure (mmHg) is -1.98. Further, the melting point was 78.8 °C and the ready biodegradability entry is reported as “readily biodegradable”.

For the compound `ClC1=C(Cl)C2(Cl)C3C(Cl)C=CC3C1(Cl)C2(Cl)Cl` (stereo not drawn), the boiling point worked out at 310 °C, the log10 Henry constant (atm·m³/mol) is -3.53, the log10 Koa was 7.64 and the log10 Koc (L/kg) came out at 4.38. Moreover, the log10 vapour pressure (mmHg) is -3.4, the melting point was 95.5 °C and the ready biodegradability entry was “not readily biodegradable”.

In the case of `C=C(C)C(=O)OC(C)(C)C`, the ready biodegradability result is reported as “not readily biodegradable”.

On to `CC(=O)CCC(=O)OCC(C)C`, for which the boiling point came to 228 °C.

`COC(=O)c1ccc([N+](=O)[O-])cc1` came in with a melting point of 95 °C.

Regarding `CC(C)(COCc1cccc(Oc2ccccc2)c1)c1ccc(OC(F)(F)Br)cc1`, the log10 vapour pressure (mmHg) was -8.23.

Regarding `Brc1ccccn1`, the boiling point is 195 °C and the log10 vapour pressure (mmHg) was -0.114.

On to `CCCCCCCCCCCCCCCCCCS`, for which the boiling point stood at 360 °C, the log10 vapour pressure (mmHg) is -6.4, the melting point was determined as 30 °C and the ready biodegradability entry is reported as “not readily biodegradable”.

`CCC=C(C)C`: the boiling point turned out to be 67.3 °C, the log10 vapour pressure (mmHg) came to 2.2 and the melting point was -135 °C.

`C=CC(=O)OCCCCCCCC`: the log10 vapour pressure (mmHg) is -0.994 and the ready biodegradability result was “readily biodegradable”.

As for `CC(C)OC(=O)[C@H](O)[C@@H](O)C(=O)OC(C)C`, the boiling point worked out at 275 °C.

The compound `CC1OC(OCC2OC(Oc3c(-c4ccc(O)cc4)oc4cc(OC5OC(C)C(O)C(O)C5O)cc(O)c4c3=O)C(O)C(O)C2O)C(O)C(O)C1O` (stereo not drawn) showed a melting point of 250 °C.

As for `OC[C@H]1O[C@@](CO)(O[C@H]2O[C@H](CO)[C@@H](O)[C@H](O)[C@H]2O)[C@@H](O[C@H]2O[C@H](CO)[C@@H](O)[C@H](O)[C@H]2O)[C@@H]1O`, the melting point turned out to be 153 °C.

As to `CC(CCO)CC(F)(F)F` (stereo not drawn), the boiling point turned out to be 159 °C.

For the compound `c1ccc(N2CN(c3ccccc3)CN(c3ccccc3)C2)cc1`, the melting point is 144 °C.

`CON(C(=O)c1cc(C)oc1C)C1CCCCC1` displayed a melting point of 33 °C.

For the compound `CC=CCCC`, the ready biodegradability result is on record as “not readily biodegradable”.

With `CN1C2CCCC1CC(=O)C2`, the boiling point was determined as 246 °C and the melting point was determined as 54 °C.

As for `CCCCCCF`, the boiling point is 91.5 °C, the log10 vapour pressure (mmHg) came to 1.76 and the melting point was -103 °C.

With `CCCCCCCCCCCCCCCCCCCCCC(N)=O`, the ready biodegradability entry is “not readily biodegradable”.

On to `NS(=O)(=O)c1ccc(S(=O)(=O)CCCO)c([N+](=O)[O-])c1`, for which the melting point was determined as 169 °C.

For `C[N+](C)(C)CCCl.[Cl-]`, the log10 vapour pressure (mmHg) is -7.12.

As for `Fc1c(F)c(F)c(CBr)c(F)c1F`, the boiling point is 174 °C.

As for `FC(=C(F)C(F)(F)F)C(F)(F)F`, the boiling point is 1.5 °C, the log10 vapour pressure (mmHg) amounted to 3.3 and the melting point is -129 °C.

Turning to `Fc1cccc(F)c1`, the boiling point turned out to be 82.6 °C, the log10 vapour pressure (mmHg) is 1.92 and the melting point is -69 °C.

`ClCI`: the boiling point was 109 °C and the log10 Henry constant (atm·m³/mol) is -3.06.

Staying with this data set, now noted: fish.
`C1CCC(C2CCCCC2)CC1` gave a log10 biotransformation half-life (days) of 0.38.

Regarding `Cc1ccccc1C`, the log10 BCF stood at 1.15.

In turn, `ClC1=C(Cl)C2(Cl)C3C(Cl)C=CC3C1(Cl)C2(Cl)Cl` (stereo not drawn) showed a log10 BCF of 3.94 and a log10 biotransformation half-life (days) of 1.45.
